The target of data set [1] is T1, ATP-dependent translocase ABCB1 (Homo sapiens, UniProt P08183). The data set can be described thus: TP_TRANSPORTER: drug resistance in KB-VIN10 cells. The format is functional, cell-based.
Data set [2] addresses T1, ATP-dependent translocase ABCB1. As to the kind of experiment: TP_TRANSPORTER: drug resistance in KB-TAX50 cells. The format is functional, cell-based.

T1 sequence (P08183 whole entry): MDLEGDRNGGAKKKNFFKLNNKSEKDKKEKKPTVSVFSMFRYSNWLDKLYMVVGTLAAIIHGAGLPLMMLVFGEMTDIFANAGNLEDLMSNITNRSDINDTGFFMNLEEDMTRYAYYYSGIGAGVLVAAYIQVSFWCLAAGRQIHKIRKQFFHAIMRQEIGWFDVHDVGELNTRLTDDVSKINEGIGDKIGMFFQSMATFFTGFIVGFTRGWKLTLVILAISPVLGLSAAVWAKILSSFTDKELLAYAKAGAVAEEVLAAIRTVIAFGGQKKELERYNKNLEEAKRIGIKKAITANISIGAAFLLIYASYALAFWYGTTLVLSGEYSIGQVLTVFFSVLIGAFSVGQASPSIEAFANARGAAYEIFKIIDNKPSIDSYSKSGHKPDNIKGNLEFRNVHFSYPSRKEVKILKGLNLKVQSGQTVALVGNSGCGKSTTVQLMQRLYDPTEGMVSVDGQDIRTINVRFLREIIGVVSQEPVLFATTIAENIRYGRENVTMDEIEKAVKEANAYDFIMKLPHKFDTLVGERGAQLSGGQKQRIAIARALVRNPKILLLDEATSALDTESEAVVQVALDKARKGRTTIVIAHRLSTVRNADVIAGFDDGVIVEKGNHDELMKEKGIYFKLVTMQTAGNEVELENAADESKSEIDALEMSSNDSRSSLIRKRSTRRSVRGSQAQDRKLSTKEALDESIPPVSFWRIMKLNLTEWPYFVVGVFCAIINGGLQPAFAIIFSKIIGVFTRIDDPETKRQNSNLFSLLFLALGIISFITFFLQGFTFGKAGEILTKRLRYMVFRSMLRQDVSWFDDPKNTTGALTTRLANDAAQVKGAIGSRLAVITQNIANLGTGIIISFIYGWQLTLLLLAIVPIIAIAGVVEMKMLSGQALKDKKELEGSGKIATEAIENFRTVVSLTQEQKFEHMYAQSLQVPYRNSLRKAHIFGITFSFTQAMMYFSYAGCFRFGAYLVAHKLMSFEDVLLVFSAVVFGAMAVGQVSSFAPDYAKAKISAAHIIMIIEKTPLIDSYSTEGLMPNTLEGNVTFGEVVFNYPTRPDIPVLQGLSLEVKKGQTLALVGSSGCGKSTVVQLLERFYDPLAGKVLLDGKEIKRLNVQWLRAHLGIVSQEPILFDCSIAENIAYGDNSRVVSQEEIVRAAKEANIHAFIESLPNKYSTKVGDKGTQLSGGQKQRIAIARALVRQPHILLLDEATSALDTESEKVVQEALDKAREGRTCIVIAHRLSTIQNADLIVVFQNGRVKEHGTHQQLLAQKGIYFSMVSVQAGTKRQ

As to `CC[C@]1(O)C[C@H]2CN(CCc3c([nH]c4ccccc34)[C@@](C(=O)OC)(c3cc4c(cc3OC)N(C=O)[C@H]3[C@@](O)(C(=O)OC)[C@H](OC(C)=O)[C@]5(CC)C=CCN6CC[C@]43[C@@H]65)C2)C1` [VINCRISTINE], the Activity entry in data set [1] and in data set [2] was “substrate [+]” each time.
Regarding `CC(=O)O[C@H]1C(=O)[C@@]2(C)[C@H]([C@H](OC(=O)c3ccccc3)[C@]3(O)C[C@H](OC(=O)[C@H](O)[C@@H](NC(=O)c4ccccc4)c4ccccc4)C(C)=C1C3(C)C)[C@]1(OC(C)=O)CO[C@@H]1C[C@@H]2O` [PACLITAXEL], the Activity result in data set [1] and in data set [2] was “substrate [+]” in each case.
As to `COc1cc2c(c(OC)c1OC)-c1ccc(OC)c(=O)cc1[C@@H](NC(C)=O)CC2` [COLCHICINE], the Activity entry in data set [1] and in data set [2] was “substrate [+]” throughout.
For `COc1ccc2c(C(=O)c3cc(OC)c(OC)c(OC)c3)c[nH]c2c1`, the Activity result in data set [1] and in data set [2] was “is not a substrate [-]” in each case.
